Experimental data: publication PMC5908784, “Extracellular loops 2 and 3 of the calcitonin receptor selectively modify agonist binding and efficacy” (Biochemical Pharmacology, 2018)
Numbering of substitutions follows the chain as printed. Where a SMILES comes first, the peptide text is derived from it. Bridges are numbered along the chain shown (N, C = ends).

Key:
Test in all cases: ERK1/2 phosphorylation
Assay type in all cases: cell-based
[1] = target: T1, hCTR L368A (Homo sapiens, UniProt P30988, L368A); settings: CV1-FlpIn cells, mean ± S.E.M.; for Emax: pERK maximal response; for EC50: pERK, three-parameter logistic fit
T1 construct: c-Myc (N); expressed in transfected cells
T1 sequence (P30988 25-474 L368A): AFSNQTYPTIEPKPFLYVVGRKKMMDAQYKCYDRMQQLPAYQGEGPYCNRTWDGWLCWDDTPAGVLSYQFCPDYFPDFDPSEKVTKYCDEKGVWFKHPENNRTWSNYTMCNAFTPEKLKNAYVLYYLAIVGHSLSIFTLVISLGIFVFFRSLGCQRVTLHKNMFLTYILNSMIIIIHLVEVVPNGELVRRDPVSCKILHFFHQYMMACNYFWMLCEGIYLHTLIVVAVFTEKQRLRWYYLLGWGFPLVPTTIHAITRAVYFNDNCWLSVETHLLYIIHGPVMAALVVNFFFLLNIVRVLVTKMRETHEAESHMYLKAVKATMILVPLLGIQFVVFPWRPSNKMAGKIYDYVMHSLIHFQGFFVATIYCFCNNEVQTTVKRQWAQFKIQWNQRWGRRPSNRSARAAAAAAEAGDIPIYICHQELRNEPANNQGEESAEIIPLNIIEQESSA
Procedure: (§1) Cells (2.5 × 10^4 cells/well) were seeded into 96-well culture plates and incubated overnight. […] Data were normalized to the maximal response elicited by 10% FBS determined at 6 min.
(§2) Data were corrected for radioligand occupancy using the Cheng-Prusoff equation in Prism; as such data are reported as pKi. Emax and EC50 were estimated from concentration-response curves using with a 3-parameter logistic equation in Prism (v7). These values are a composite of functional affinity, efficacy and stimulus response coupling. […] Significance was accepted at P < 0.05.

[2] = target: T2, hCTR R362A (Homo sapiens, UniProt P30988, R362A); settings: CV1-FlpIn cells, mean ± S.E.M.; for Emax: pERK maximal response; for EC50: pERK, three-parameter logistic fit
T2 construct: expressed in transfected cells
T2 sequence (P30988 25-474 R362A): T1 sequence (P30988 25-474 L368A) with R338A, A344L
Procedure: as §1, §2

[3] = target: T3, hCTR WT (Homo sapiens, UniProt P30988); settings: CV1-FlpIn cells, mean ± S.E.M.; for Emax: pERK maximal response; for EC50: pERK, three-parameter logistic fit
T3 construct: expressed in transfected cells
T3 sequence (P30988 25-474): T1 sequence (P30988 25-474 L368A) with A344L
Procedure: as §1, §2

[4] = target: T4, hCTR P360A (Homo sapiens, UniProt P30988, P360A); settings: CV1-FlpIn cells, mean ± S.E.M.; for Emax: pERK maximal response
T4 construct: expressed in transfected cells
T4 sequence (P30988 25-474 P360A): T1 sequence (P30988 25-474 L368A) with P336A, A344L
Procedure: as §1, §2

[5] = target: T5, hCTR Y299A (Homo sapiens, UniProt P30988, Y299A); settings: CV1-FlpIn cells, mean ± S.E.M.; for Emax: pERK maximal response
T5 construct: c-Myc (N); expressed in transfected cells
T5 sequence (P30988 25-474 Y299A): T1 sequence (P30988 25-474 L368A) with Y275A, A344L
Procedure: as §1, §2

[6] = pERK, three-parameter logistic fit

EC50 [1] [µM] | EC50 [2] [µM] | EC50 [3] [µM] | EC50 [4, 6] [µM] | EC50 [5, 6] [µM] | Compound | Emax [1] [%] | Emax [2] [%] | Emax [3] [%] | Emax [4] [%] | Emax [5] [%]
0.0851 | 0.112 | 0.0776 |  |  | CC(C)C[C@H](NC(=O)CNC(=O)[C@H](C)NC(=O)[C@H](CC(C)C)NC(=O)[C@H](CCCNC(=N)N)NC(=O)[C@H](Cc1cnc[nH]1)NC(=O)[C@@H](NC(=O)[C@@H](NC(=O)[C@@H]1CSSC[C@H](NC(=O)[C@H](C)N)C(=O)N[C@@H](CC(=O)O)C(=O)N[C@@H]([C@@H](C)O)C(=O)N[C@@H](C)C(=O)N[C@@H]([C@@H](C)O)C(=O)N1)C(C)C)[C@@H](C)O)C(=O)N[C@@H](CC(C)C)C(=O)N[C@@H](CO)C(=O)N[C@@H](CCCNC(=N)N)C(=O)N[C@@H](CO)C(=O)NCC(=O)NCC(=O)N[C@H](C(=O)N[C@H](C(=O)N[C@@H](CCCCN)C(=O)N[C@@H](CC(N)=O)C(=O)N[C@@H](CC(N)=O)C(=O)N[C@@H](Cc1ccccc1)C(=O)N[C@H](C(=O)N1CCC[C@H]1C(=O)N[C@H](C(=O)N[C@@H](CC(N)=O)C(=O)N[C@H](C(=O)NCC(=O)N[C@@H](CO)C(=O)N[C@@H](CCCCN)C(=O)N[C@@H](C)C(=O)N[C@@H](Cc1ccccc1)C(N)=O)C(C)C)[C@@H](C)O)C(C)C)C(C)C)C(C)C [hαCGRP] | 84 ± 16 | 31 ± 8 | 100 ± 6 |  | 
0.00195 | 0.00759 | 0.00112 | 0.0398 | 0.000933 | CSCC[C@H](NC(=O)CNC(=O)[C@H](CO)NC(=O)[C@H](Cc1ccccc1)NC(=O)[C@H](CCCNC(=N)N)NC(=O)[C@H](Cc1c[nH]cn1)NC(=O)[C@H](Cc1ccccc1)NC(=O)[C@H](CC(N)=O)NC(=O)[C@H](CC(N)=O)NC(=O)[C@H](CC(C)C)NC(=O)[C@H](CC(N)=O)NC(=O)[C@H](CCCNC(=N)N)NC(=O)[C@H](Cc1c[nH]c2ccccc12)NC(=O)[C@H](Cc1ccc(O)cc1)NC(=O)[C@H](C)NC(=O)[C@H](CO)NC(=O)[C@H](CC(C)C)NC(=O)[C@@H](NC(=O)[C@@H]1CSSC[C@H](N)C(=O)N[C@@H](CO)C(=O)N[C@@H](CC(N)=O)C(=O)N[C@@H](CC(C)C)C(=O)N[C@@H](CO)C(=O)N[C@@H]([C@@H](C)O)C(=O)N1)C(C)C)C(=O)NCC(=O)N[C@@H](Cc1ccccc1)C(=O)NCC(=O)N1CCC[C@H]1C(=O)N[C@@H](CCC(=O)O)C(=O)N[C@H](C(=O)N1CCC[C@H]1C(N)=O)[C@@H](C)O [pCT] (H-CSNLSTCVLSAYWRNLNNFHRFSGMGFGPETP-NH2; disulfide 1-7) | 159 ± 11 | 45 ± 4 | 100 ± 3 | 59 ± 7 | 51 ± 3
 |  |  |  |  | CC(C)C[C@H](NC(=O)[C@H](CCCCN)NC(=O)CNC(=O)[C@H](CC(C)C)NC(=O)[C@@H](NC(=O)[C@@H]1CSSC[C@H](N)C(=O)N[C@@H](CO)C(=O)N[C@@H](CC(N)=O)C(=O)N[C@@H](CC(C)C)C(=O)N[C@@H](CO)C(=O)N[C@@H]([C@@H](C)O)C(=O)N1)C(C)C)C(=O)N[C@@H](CO)C(=O)N[C@@H](CCC(N)=O)C(=O)N[C@@H](CCC(=O)O)C(=O)N[C@@H](CC(C)C)C(=O)N[C@@H](Cc1c[nH]cn1)C(=O)N[C@@H](CCCCN)C(=O)N[C@@H](CC(C)C)C(=O)N[C@@H](CCC(N)=O)C(=O)N[C@H](C(=O)N[C@@H](Cc1ccc(O)cc1)C(=O)N1CCC[C@H]1C(=O)N[C@@H](CCCNC(=N)N)C(=O)N[C@H](C(=O)N[C@@H](CC(N)=O)C(=O)N[C@H](C(=O)NCC(=O)N[C@@H](CO)C(=O)NCC(=O)N[C@H](C(=O)N1CCC[C@H]1C(N)=O)[C@@H](C)O)[C@@H](C)O)[C@@H](C)O)[C@@H](C)O [sCT] | 140 ± 6 | 107 ± 10 | 100 ± 3 | 115 ± 9 | 58 ± 4
 |  |  |  |  | CC[C@H](C)[C@H](NC(=O)[C@H](C)NC(=O)[C@@H](NC(=O)[C@H](CCC(N)=O)NC(=O)[C@@H]1CCCN1C(=O)[C@H](Cc1ccccc1)NC(=O)[C@@H](NC(=O)[C@H](Cc1c[nH]cn1)NC(=O)[C@H](Cc1ccccc1)NC(=O)[C@H](CCCCN)NC(=O)[C@H](CC(N)=O)NC(=O)[C@H](Cc1ccccc1)NC(=O)[C@H](CC(=O)O)NC(=O)[C@H](CCC(N)=O)NC(=O)[C@@H](NC(=O)[C@H](Cc1ccc(O)cc1)NC(=O)[C@@H](NC(=O)CNC(=O)[C@H](CC(C)C)NC(=O)[C@H](CCSC)NC(=O)[C@@H]1CSSC[C@H](N)C(=O)NCC(=O)N[C@@H](CC(N)=O)C(=O)N[C@@H](CC(C)C)C(=O)N[C@@H](CO)C(=O)N[C@@H]([C@@H](C)O)C(=O)N1)[C@@H](C)O)[C@@H](C)O)[C@@H](C)O)[C@@H](C)O)C(=O)NCC(=O)N[C@H](C(=O)NCC(=O)N[C@@H](C)C(=O)N1CCC[C@H]1C(N)=O)C(C)C [hCT] | 126 ± 7 | 64 ± 7 | 100 ± 3 | 51 ± 6 | 56 ± 6
 |  |  |  |  | CC(C)C[C@H](NC(=O)[C@H](CC(N)=O)NC(=O)[C@H](CC(N)=O)NC(=O)[C@H](CO)NC(=O)[C@H](CO)NC(=O)[C@H](CCCNC(=N)N)NC(=O)[C@@H](NC(=O)[C@H](CC(C)C)NC(=O)[C@H](Cc1ccccc1)NC(=O)[C@H](CC(N)=O)NC(=O)[C@H](C)NC(=O)[C@H](CC(C)C)NC(=O)[C@H](CCCNC(=N)N)NC(=O)[C@H](CCC(N)=O)NC(=O)[C@@H](NC(=O)[C@H](C)NC(=O)[C@@H]1CSSC[C@H](NC(=O)[C@@H](N)CCCCN)C(=O)N[C@@H](CC(N)=O)C(=O)N[C@@H]([C@@H](C)O)C(=O)N[C@@H](C)C(=O)N[C@@H]([C@@H](C)O)C(=O)N1)[C@@H](C)O)C(C)C)C(=O)NCC(=O)N1CCC[C@H]1C(=O)N[C@H](C(=O)N[C@@H](CC(C)C)C(=O)N1CCC[C@H]1C(=O)N1CCC[C@H]1C(=O)N[C@H](C(=O)N[C@@H](CC(N)=O)C(=O)N[C@H](C(=O)NCC(=O)N[C@@H](CO)C(=O)N[C@@H](CC(N)=O)C(=O)N[C@H](C(=O)N[C@@H](Cc1ccc(O)cc1)C(N)=O)[C@@H](C)O)C(C)C)[C@@H](C)O)C(C)C [rAmy] | 82 ± 8 | 36 ± 7 | 100 ± 5 |  | 51 ± 7
